Experimental data taken from patent publication US10555987B2, “GHRH agonists for the treatment of ischemic disorders” (UNIVERSITY OF MIAMI, priority 2012, dated 2020).
Non-standard residues stand in square brackets, D forms with d. Residues, ends and D or L forms follow the SMILES beside them. NMeY = CN[C@@H](Cc1ccc(O)cc1)C(=O)O; Nle = CCCC[C@H](N)C(=O)O; Orn = NCCC[C@H](N)C(=O)O; Abu = CC[C@H](N)C(=O)O; Aoc = NCCCCCCCC(=O)O

Assays:
GH release [1] = assay: In vivo endocrine activity, GH release after intravenous administration (Table 8); conditions: rat, i.v. injection
Experimental: In vivo tests on endocrine activity of new GHRH agonists (Intravenous administration). For in vivo tests based on intravenous administration, adult male Sprague-Dawley rats were anesthetized with pentobarbital (6 mg/100/g, b.w.), and GHRH agonists were injected 20 minutes after the injection of pentobarbital. Blood samples were taken from the jugular vein (pretreated level), immediately after hGHRH(1-29)NH2 injection (as a control) or after hGHRH analogs injection. Blood samples were taken from the jugular vein 5, 15 and 30 minutes after the injection. The blood samples were centrifuged, plasma was removed and the GH level was measured by ELISA.

GH release [2] = assay: In vivo endocrine activity, GH release after subcutaneous administration (Table 9); conditions: rat, subcutaneous (s.c.) injection
Experimental: Subcutaneous Administration. Adult male rats were used and anesthetized with pentobarbital (6 mg/100 g, b.w.), by i.p. injection. […] Blood samples were taken from the jugular vein 5, 15 and/or 30 minutes after the injection. The blood samples were centrifuged, plasma was removed and the GH level was measured byELISA. The results are summarized in terms of potency in Table 9.

[3] = system: myocardial infarction (Fisher-344 rats); assay: Serial echocardiography after MI, compared to JI-38 (Example 15, Table 15); format: in vivo, rat; set-up: key to LVEDD: Left Ventricular End Diastolic Diameter / LVESD: Left Ventricular End Systolic Diameter / VD: Ventricular Diastole / VS: Ventricular Systole / EF: Ejection Fraction / FS: Fraction Shortening: ↓: downward arrow denotes lower than JI-38; ↑: upward arrow denotes greater than JI-38; =denotes same as JI-38; ⬇⬇: double arrow denotes greater effect; ⬆⬆: double arrow denotes greater effect; conditions: in comparison to JI-38
Experimental: Echocardiographic measurements were obtained at baseline, 2 days, 1, 2 and 4 weeks. Echocardiographic assessments were performed in anesthetized rats (2% isoflurane inhalation) using a Vevo-770 echocardiogram (Visual Sonics Inc., Toronto, Ontario, Canada) equipped with a 17.5-MHz transducer. Cardiac dimensions: LV end diastolic (LVEDD), end systolic (LVESD) diameters and fractional shortening (FS) were recorded from M-mode images using averaged measurements from 3 to 5 consecutive cardiac cycles according to the American Society of Echocardiography. Ejection fraction (EF) was calculated from bi-dimensional long-axis parasternal views taken through the infarcted area. All images were analyzed using Vevo 770 3.0.0 software (Visual Sonics Inc., Toronto, Ontario, Canada).
(§1) Myocardial infarction (MI) was induced by permanent ligation of the left coronary artery in female 6-month-old Fisher-344 rats. Following experimental myocardial infarction (MI), rats were randomly assigned to receive either placebo, JI-38, or one of the following new analogs of GHRH: MR-30 l(P-21301), MR-303(P-21303), MR-356(P-20356), MR-502(25502), MR-350(P-20350), MR-36 l(P-20361), MR-367(P-20367), MR-403(P-27403), MR-404(P-27404), and MR-409(P-27409) (10 rats per each group). The GHRH peptide agonists were adminsistered starting 2 hours post-surgery, 1 week, 2 week, and 4 week intervals. All treatment was given subcutaneously twice daily. Cardiac performance was assessed by serial echocardiography and hemodynamic analysis derived from pressure-volume loops as described before.
The echocardiographic experiments are shown in FIGS. 10-15 and the results are summarized in Table 15 (results were expressed in comparison to JI-38; downward arrow denotes lower than JI-38; upward arrow denotes greater than JI-38; =denotes same as JI-38; and double arrow denotes greater effect).

[4] = system: myocardial infarction (Fisher-344 rats); assay: Hemodynamic analysis (pressure-volume loops), body and heart weight after MI, compared to JI-38 (Example 15, Table 16); format: in vivo, rat; set-up: key to ESP (End-Systolic Pressure) / EDP (End-Diastolic Pressure) / ESV (End-Systolic Volume) / PRSW (Preload Recruitable Stroke Work) / Ees (End-systolic Elastance) / dP/dt max (peak rate of the pressure rise) / dP/dt max_EDV / dP/dt min / TAU (relaxation time constant calculated by Weiss method) / SV (Stroke Volume) / CO (Cardiac Output) / SW (Stroke Work) / EF / Ea/Ees / Ea (arterial Elastance): ↓: downward arrow denotes lower than JI-38; ↑: upward arrow denotes greater than JI-38; =denotes same as JI-38; ⬇⬇: double arrow denotes greater effect; ⬆⬆: double arrow denotes greater effect; conditions: rat MI model, s.c. twice daily; pressure-volume loops; expressed in comparison to JI-38
Experimental: Rats were anesthetized by intramuscular injection of a mixture of ketamine (100 mg/kg), xylazine (20 mg/kg) and acepromazine (10 mg/kg). A 2-F micromanometer tipped catheter (SPR-838, Millar Instruments, Houston, Tex.) was inserted into the right carotid artery and advanced retrograde into the left ventricle. Measurements were calibrated by injecting a hypertonic saline (15%) bolus to determine extra-ventricular conductance; relative volume units were converted to actual volume using the cuvette calibration method. All analyses were performed using PVAN 3.0 software (Millar Instruments, Houston, Tex.).
as §1
The hemodynamic studies are shown in FIGS. 16-33 and the results are summarized in Table 16 (results were expressed in comparison to JI-38; downward arrow denotes lower than JI-38; upward arrow denotes greater than JI-38; =denotes same as JI-38; and double arrow denotes greater effect).

GHRH receptor = target: T1, GHRH receptor (Homo sapiens, UniProt Q02643); assay: GHRH receptor binding, competition with 125I-labeled JV-1-42, human pituitary membrane homogenates (Table 7); set-up: Normal human pituitaries were purchased from the National Hormone and Peptide Program; tissue National Hormone and Peptide Program (A.F. Parlow, Harbor-UCLA Medical Center, Torrance, Calif.); host or cells: normal human pituitary, membrane fraction; conditions: JI-38 = 1, Table 7
T1 sequence (Q02643 23-423): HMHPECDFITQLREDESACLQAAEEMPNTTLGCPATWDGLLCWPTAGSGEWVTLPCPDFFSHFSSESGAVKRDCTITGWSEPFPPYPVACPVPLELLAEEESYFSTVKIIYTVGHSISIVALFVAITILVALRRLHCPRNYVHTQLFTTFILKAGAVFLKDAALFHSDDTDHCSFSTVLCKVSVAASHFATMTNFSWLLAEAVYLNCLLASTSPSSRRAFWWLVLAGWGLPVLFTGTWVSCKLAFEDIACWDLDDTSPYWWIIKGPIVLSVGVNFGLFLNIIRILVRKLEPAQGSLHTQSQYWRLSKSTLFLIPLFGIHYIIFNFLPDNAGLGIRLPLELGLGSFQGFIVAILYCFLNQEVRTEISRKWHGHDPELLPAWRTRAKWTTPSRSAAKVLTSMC
Text: Normal human pituitaries were purchased from the National Hormone and Peptide Program (A.F. Parlow, Los Angeles, County Harbor-UCLA Medical Center, Torrance, Calif.).

| SMILES | GH releasing potency in vivo relative to JI-38 (=1) (GH release [1]; 5 min after) | GH releasing potency in vivo relative to JI-38 (=1) (GH release [1]; 15 min after) | GH releasing potency in vivo relative to JI-38 (=1) (GH release [1]; 30 min after) | GH releasing potency relative to JI-38 (=1) (GH release [2]; 15 min after) | GH releasing potency relative to JI-38 (=1) (GH release [2]; 30 min after) | EF: Ejection Fraction [3] | FS: Fraction Shortening [3] | LVEDD: Left Ventricular End Diastolic Diameter [3] | LVESD: Left Ventricular End Systolic Diameter [3] | VD: Ventricular Diastole [3] | VS: Ventricular Systole [3] | CO (Cardiac Output) [4] | EDP (End-Diastolic Pressure) [4] | EF [4] | ESP (End-Systolic Pressure) [4] | ESV (End-Systolic Volume) [4] | Ea (arterial Elastance) [4] | Ea/Ees [4] | Ees (End-systolic Elastance) [4] | PRSW (Preload Recruitable Stroke Work) [4] | further results |
| --- | --- | --- | --- | --- | --- | --- | --- | --- | --- | --- | --- | --- | --- | --- | --- | --- | --- | --- | --- | --- | --- |
| CCCC[C@H](NC(=O)[C@@H](NC(=O)[C@H](CC(=O)O)NC(=O)[C@H](CCC(N)=O)NC(=O)[C@H](CC(C)C)NC(=O)[C@H](CC(C)C)NC(=O)[C@H](CCCN)NC(=O)[C@H](CCCNC(=N)N)NC(=O)[C@H](C)NC(=O)[C@H](CO)NC(=O)[C@H](CC(C)C)NC(=O)[C@H](CCC(N)=O)NC(=O)[C@H](CC)NC(=O)[C@H](CC(C)C)NC(=O)[C@@H](NC(=O)[C@H](CCCN)NC(=O)[C@H](CCCNC(=N)N)NC(=O)[C@H](Cc1ccc(O)cc1)NC(=O)[C@H](CO)NC(=O)[C@H](CC(N)=O)NC(=O)[C@@H](NC(=O)[C@H](Cc1ccccc1)NC(=O)[C@@H](NC(=O)[C@H](C)NC(=O)[C@H](CC(=O)O)NC(=O)[C@H](C)NC(=O)[C@H](Cc1ccc(O)cc1)NC)[C@@H](C)CC)[C@@H](C)O)C(C)C)[C@@H](C)CC)C(=O)N[C@@H](CC(=O)O)C(=O)N[C@@H](CCCNC(=N)N)C(=O)NCCCCCCCC(N)=O [Peptide P-21301, [N—Me-Tyr^1, Orn^12, Abu^15, Orn^21, Nle^27, Asp^28, Amc^30]hGHRH(1-30)NH2] (H-[NMeY]ADAIFTNSYR[Orn]VL[Abu]QLSAR[Orn]LLQDI[Nle]DR[Aoc]-NH2) | 0.79 | 0.92 | 1.00 | 0.41 | 0.74 | ↓ | = | ↑ | ↑ | ↑ | ↑ | = | ↑ | ↓ | ↓ | ↑ | = | ↑ | = | = | SV (Stroke Volume) [4]: =; SW (Stroke Work) [4]: ↓; TAU (relaxation time constant calculated by Weiss method) [4]: =; dP/dt max (peak rate of the pressure rise) [4]: ↓; dP/dt max_EDV [4]: ↓; dP/dt min [4]: =; Relative affinity (Binding potency) vs JI-38 (GHRH receptor): 1.45 |
| CCCC[C@H](NC(=O)[C@@H](NC(=O)[C@H](CC(=O)O)NC(=O)[C@H](CCC(N)=O)NC(=O)[C@H](CC(C)C)NC(=O)[C@H](CC(C)C)NC(=O)[C@H](CCCN)NC(=O)[C@H](CCCNC(=N)N)NC(=O)[C@H](C)NC(=O)[C@H](CO)NC(=O)[C@H](CC(C)C)NC(=O)[C@H](CCC(N)=O)NC(=O)[C@H](CC)NC(=O)[C@H](CC(C)C)NC(=O)[C@@H](NC(=O)[C@H](CCCN)NC(=O)[C@H](CCCNC(=N)N)NC(=O)[C@H](Cc1ccc(O)cc1)NC(=O)[C@H](CO)NC(=O)[C@H](CC(N)=O)NC(=O)[C@@H](NC(=O)[C@H](Cc1ccccc1)NC(=O)[C@@H](NC(=O)[C@H](C)NC(=O)[C@H](CC(=O)O)NC(=O)[C@@H](C)NC(=O)[C@H](Cc1ccc(O)cc1)NC)[C@@H](C)CC)[C@@H](C)O)C(C)C)[C@@H](C)CC)C(=O)N[C@@H](CC(=O)O)C(=O)N[C@@H](CCCNC(=N)N)C(=O)NCCCCCCCC(N)=O [Peptide P-21303, [N—Me-Tyr^1, D-Ala^2, Orn^12, Abu^15, Orn^21, Nle^27, Asp^28, Amc^30]hGHRH(1-30)NH2] (H-[NMeY][dA]DAIFTNSYR[Orn]VL[Abu]QLSAR[Orn]LLQDI[Nle]DR[Aoc]-NH2) | 0.79 | 1.14 | 0.81 | 0.95 | 1.45 | ↓ | = | = | = | ↑ | ↑ | = | ↑ | ↑ | ↓ | = | = | = | ↓ | ↓ | SV (Stroke Volume) [4]: =; SW (Stroke Work) [4]: =; TAU (relaxation time constant calculated by Weiss method) [4]: =; dP/dt max (peak rate of the pressure rise) [4]: ↓; dP/dt max_EDV [4]: ↓; dP/dt min [4]: =; Relative affinity (Binding potency) vs JI-38 (GHRH receptor): 2.32 |
